Test results: patent publication US20100130604A1, “USE OF ROSMARINIC ACID IN MANUFACTURE OF MEDICAMENTS FOR TREATING OR PREVENTING HEPATIC AND RENAL DISEASES” (SHANGDONG LUYE NATURAL DRUG RESEARCH AND DEVELOPMENT CO., …, priority 2006, published 2010)

Columns and labels:
Assay type in all cases: in vivo, Sprague Dawley rats
CRF rats [1] = test: CRF induced by 5/6 nephrectomy in rats; conditions: 8 weeks; p.o. 12 mg/kg
Method: 130 rats were randomly divided into 13 groups, with 10 animals in each group, namely, a normal control group, a model group, methylprednisolone p.o. Group at 12 mg/kg, RA i.v. groups at 2.5 mg/kg, 5 mg/kg, 25 mg/kg, 75 mg/kg, and 150 mg/kg of RA, and RA p.o. groups at 5 mg/kg, 10 mg/kg, 50 mg/kg, 150 mg/kg, and 300 mg/kg of RA. Apart from the normal control group, all other rats were induced to CRF by cutting off 5/6 of the kidneys. 2/3 of the left kidney was removed in the first operation, and one week later the right kidney in the second operation. Dosing started one week after the second operation via p.o. or i.p. routes. Blood was collected from eyepit at week 4 and week 8 to determine creatinine and urea nitrogen levels in sera. 5 animals in each group were sacrificed at week 4 and […] were sacrificed at the end of the study. Pathological changes in renal function were observed through HE and PAS staining of histopathological sections.

CRF rats [2] = test: CRF induced by 5/6 nephrectomy in rats; conditions: p.o. 12 mg/kg
hepatofibrosis in rats = test: CCl4-induced hepatofibrosis in chronic hepatitis in rats; conditions: hepatic; 8 mg/kg, 6 weeks
Method: 120 rats were randomly divided into 12 groups, with 10 in each group, namely, a normal control group, a model group, […] Apart from the normal control group, all rats were s.c. injected 0.3 ml of 40% solution of CC14 in oil per 100 g of body weight once every 3 days for 6 weeks. Animals in the normal control group were s.c. injected 0.3 ml/100 g body weight of oil vehicle following the same schedule as the experimental groups. First dose was doubled for all animals. Six weeks later, drugs were continuously administered to animals in each group for 6 weeks. After the administration was completed, all animals were anaesthetised with i.p. injection of 20% ethyl carbamate solution (Beijing Tongxian District Yucai Fine Chemicals). Blood was collected from abdominal aorta. Hepatic lobule tissue was removed, part of which was fixed with 10% neutral foinialin solution and made into wax blocks within 24-48 hours. […] Serum HA, LN, Pc III levels and hepatic HYP level were determined according to the respective kit instructions.

[3] = system: rats with diabetic nephropathy; test: Diabetic nephropathy in rats (left nephrectomy + streptozocin); conditions: p.o. 10 mg/kg; for creatinine: serum
Method: After 1 week-long acclimation period, animals were anaesthetised with 10% chloral hydrate (0.35 mL/100 g, i.p.) and nephrectomy was exercised to the left kidney. One week later, a single dose of 1% of streptozocin solution was i.v. injected to all animals at 60 mg/kg. After 72h, blood was collected from eyepit to test blood glucose level with the above-mentioned kit. The model was considered successful when blood glucose level >16.7 mmol/L. When the model is established, 130 rats were randomly divided into 13 groups, with 10 animals in each group, namely, a normal control group, a model group, benzanapril p.o. Group at 10 mg/kg, RA i.v. groups at 2.5 mg/kg, 5 mg/kg, 25 mg/kg, 75 mg/kg, and 150 mg/kg of RA, and RA p.o. groups at 5 mg/kg, 10 mg/kg, 50 mg/kg, 150 mg/kg, and 300 mg/kg of RA. The drugs were administered once every day. Blood was collected from eyepit at week 8 and week 16 to determine serum levels of creatinine and urea nitrogen. Urinary protein excretion within 24 hours was also studied. The animals were sacrificed 24 hours after the last dose and kidney removed for histopathological examination.

[4] = system: renal interstitial fibrosis in rats; test: Renal interstitial fibrosis in rats with unilateral urethral obstruction; conditions: day 10
Method: 130 rats were randomly divided into 13 groups, namely, a sham operation group, a model group, benazapril p.o. Group at 10 mg/kg, RA i.v. groups at 2.5 mg/kg, 5 mg/kg, 25 mg/kg, 75 mg/kg, and 150 mg/kg of RA, and RA p.o. groups at 2.5 mg/kg, 5 mg/kg, 25 mg/kg, 150 mg/kg, and 300 mg/kg of RA. The animals were acclimated for a week before they were all anaesthetised with an i.p. dose of 10% chloral hydrate at 3.0mL/kg and placed on the operating table in right lateral position. The rats were shaved and the operating area was disinfected using iodine tincture and 75% ethanol. The left urethra was exposed and isolated after a left lateral incision was made on the abdominal area and skin, muscles and all other layers of the abdominal wall were incised sequentially. In the sham group, the left urethra was only isolated without being ligated or cut off. In all other animals, the left urethra was ligated with No. 4 suture and obstructed followed by closure of the abdominal wall layer by layer. The animals were anaesthetised again with 10% chloral hydrate 10 days later, blood was collected and serum was separated to determine FN levels. The left kidney was removed after thorough rinsing and then fixed in 4% paraformaldehyde buffer. HYP level was determined according to instructions provided with the kit.

Q: What does the source list for C[C@H]1C[C@@H]2[C@H]([C@@H](O)C[C@@]3(C)[C@H]2CC[C@]3(O)C(=O)CO)[C@@]2(C)C=CC(=O)C=C12 [Methylprednisolone, reference compound]?
A: Serum urea nitrogen (CRF rats [1]): 18.21 ± 4.25 mg/dL; Serum creatinine (CRF rats [2]; 4 weeks): 1.33 ± 0.13 mg/dL; Serum urea nitrogen (CRF rats [2]; 4 weeks): 15.21 ± 3.25 mg/dL; Serum creatinine (CRF rats [2]; 8 weeks): 1.25 ± 0.17 mg/dL

Q: CN(CCOc1ccc(CC2SC(=O)NC2=O)cc1)c1ccccn1 (stereo not drawn) [Rosiglitazone, reference compound] was tested. Which HYP (hepatofibrosis in rats) did it give?
A: Its HYP is 1259 ± 153 µg/L.

Q: Which “24 h urinary protein excretion” value ([3]; 8 weeks) does the source give for CCOC(=O)[C@H](CCc1ccccc1)N[C@H]1CCc2ccccc2N(CC(=O)O)C1=O [Benazapril, reference compound] here?
A: Its value is 19.29 ± 2.11 mg/24 h.

Q: And the Blood glucose ([3]; 8 weeks)?
A: The Blood glucose was 21.11 ± 4.55 mmol/L.

Q: And the Serum urea nitrogen ([3]; 8 weeks)?
A: The Serum urea nitrogen was 9.21 ± 1.62 mg/dL.

Q: And the “24 h urinary protein excretion” value ([3]; 16 weeks)?
A: The value was 61.76 ± 6.75 mg/24 h.

Q: And the Blood glucose ([3]; 16 weeks)?
A: Its Blood glucose is 22.11 ± 4.55 mmol/L.

Q: What about the Serum urea nitrogen ([3]; 16 weeks) of the same molecule?
A: The Serum urea nitrogen was 18.21 ± 3.25 mg/dL.

Q: And the creatinine ([3]; 8 weeks)?
A: Its creatinine is 0.57 ± 0.07 mg/dL.

Q: And the creatinine ([3]; 16 weeks)?
A: Its creatinine is 1.15 ± 0.13 mg/dL.

Q: What about the HYP ([4]; left kidney, benazapril p.o. 10 mg/kg) of the same molecule?
A: The HYP was 500 ± 132 µg/g.

Q: What about the FN ([4]; serum, p.o. 10 mg/kg) of the same molecule?
A: The FN was 17.0 ± 3.6 mg/L.
